Measurements from PubChem BioAssay AID248 (DTP/NCI, 2004).
Several values for one entry are separate records, joined by “and”; a condition that tells them apart may be missing. Equal entries are not always repeated. Toxic doses and inconclusive results are not listed. Rule as the data show it: active = T/C of 150% or more; inactive = T/C below 125%.

Tested on: L1210 leukemia ip in BDF1 mice, survival T/C
Test: NCI In Vivo Anticancer Drug Screen. Data for tumor model L1210 Leukemia (intraperitoneal) in B6D2F1 (BDF1) mice
Conditions: endpoint: mean survival time, higher = longer survival
In short: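 Tumor cells were implanted, animals were treated, and survival was followed. The result divides the treated measurement by the vehicle-control measurement.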

[1] = dose: 50.0 mg/kg/injection, schedule: Q01DX009 (ip), vehicle: Klucel (hydroxypropylcellulose) (HPC)
[2] = dose: 100.0 mg/kg/injection, schedule: Q01DX009 (ip), vehicle: Klucel (hydroxypropylcellulose) (HPC)
[3] = dose: 100.0 mg/kg/injection, schedule: Q04DX003 (ip), vehicle: Klucel (hydroxypropylcellulose) (HPC)
[4] = dose: 200.0 mg/kg/injection, schedule: Q04DX003 (ip), vehicle: Klucel (hydroxypropylcellulose) (HPC)
[5] = dose: 100.0 mg/kg/injection, schedule: Q01DX001 (ip), vehicle: Klucel (hydroxypropylcellulose) (HPC)
[6] = dose: 200.0 mg/kg/injection, schedule: Q01DX001 (ip), vehicle: Klucel (hydroxypropylcellulose) (HPC)
[7] = dose: 400.0 mg/kg/injection, schedule: Q01DX001 (ip), vehicle: Klucel (hydroxypropylcellulose) (HPC)
[8] = dose: 100.0 mg/kg/injection, schedule: Q04DX002 (ip), vehicle: Klucel (hydroxypropylcellulose) (HPC)
[9] = dose: 200.0 mg/kg/injection, schedule: Q04DX002 (ip), vehicle: Klucel (hydroxypropylcellulose) (HPC)
[10] = dose: 400.0 mg/kg/injection, schedule: Q04DX002 (ip), vehicle: Klucel (hydroxypropylcellulose) (HPC)
[11] = dose: 100.0 mg/kg/injection, schedule: Q01DX001 (ip), vehicle: saline
[12] = dose: 200.0 mg/kg/injection, schedule: Q01DX001 (ip), vehicle: saline
[13] = dose: 400.0 mg/kg/injection, schedule: Q01DX001 (ip), vehicle: saline
[14] = dose: 100.0 mg/kg/injection, schedule: Q04DX002 (ip), vehicle: saline
[15] = dose: 200.0 mg/kg/injection, schedule: Q04DX002 (ip), vehicle: saline
[16] = dose: 200.0 mg/kg/injection, schedule: Q01DX009 (ip), vehicle: Klucel (hydroxypropylcellulose) (HPC)
[17] = dose: 100.0 mg/kg/injection, schedule: Q01DX009 (ip), vehicle: saline with Tween-80
[18] = dose: 200.0 mg/kg/injection, schedule: Q01DX009 (ip), vehicle: saline with Tween-80
[19] = dose: 400.0 mg/kg/injection, schedule: Q01DX009 (ip), vehicle: saline with Tween-80

Measured: T/C

CC#CCC(N)C(=O)O (stereo not given)
inactive: dose: 75.0 mg/kg/injection, schedule: Q01DX001 (ip), vehicle: carboxymethylcellulose (CMC) 109 % of control | dose: 80.0 mg/kg/injection, schedule: Q01DX009 (ip), vehicle: saline 105 % of control | dose: 150.0 mg/kg/injection, schedule: Q01DX001 (ip), vehicle: carboxymethylcellulose (CMC) 103 % of control | dose: 160.0 mg/kg/injection, schedule: Q01DX009 (ip), vehicle: saline 106 % of control | dose: 300.0 mg/kg/injection, schedule: Q01DX001 (ip), vehicle: carboxymethylcellulose (CMC) 118 % of control | dose: 320.0 mg/kg/injection, schedule: Q01DX009 (ip), vehicle: saline 94 % of control

CC(O)CN(c1ccccc1)c1ccccc1 (stereo not given)
inactive: dose: 100.0 mg/kg/injection, schedule: Q01DX001 (ip), vehicle: carboxymethylcellulose (CMC) 101 % of control | dose: 200.0 mg/kg/injection, schedule: Q01DX001 (ip), vehicle: carboxymethylcellulose (CMC) 92 % of control | dose: 400.0 mg/kg/injection, schedule: Q01DX001 (ip), vehicle: carboxymethylcellulose (CMC) 95 % of control

O=C(COc1ccc(Cl)cc1C(=O)O)NCc1ccc([N+](=O)[O-])cc1
inactive: dose: 75.0 mg/kg/injection, schedule: Q01DX009 (ip), vehicle: Klucel (hydroxypropylcellulose) (HPC) 106 % of control | dose: 150.0 mg/kg/injection, schedule: Q01DX009 (ip), vehicle: Klucel (hydroxypropylcellulose) (HPC) 104 % of control | dose: 300.0 mg/kg/injection, schedule: Q01DX009 (ip), vehicle: Klucel (hydroxypropylcellulose) (HPC) 101 % of control

[Cl][Ge]([Cl])([c]1ccccc1)[c]1ccccc1
inactive: [1] 96 % of control | [2] 96 % of control | [3] 98 % of control | [4] 94 % of control

NC(=O)Cc1cccc(=O)[nH]1
inactive: [5] 100 % of control | [6] 97 % of control | [7] 95 % of control

Nc1cc(C(=O)O)[nH]c(=O)n1
inactive: dose: 100.0 mg/kg/injection, schedule: Q01DX Z (ip), vehicle: methylcellulose (MC) 97 % of control

CCOc1ccc(/C=N/NC(=O)c2ccccc2N)cc1OC
inactive: [8] 97 % of control | [9] 102 % of control | [10] 105 % of control

CCCP(=S)(C(C)C)C(C)C
inactive: dose: 100.0 mg/kg/injection, schedule: Q04DX003 (ip), vehicle: saline with Tween-80 103 % of control

O=c1[nH]c2ccc(Br)cc2cc1Br
inactive: [11] 97 % of control | [12] 97 % of control | [13] 97 % of control

COc1ccc(C2=CC=C(c3ccccc3)C2)cc1N
inactive: [5] 90 % of control | [6] 95 % of control | [7] 90 % of control

Cc1c(C)c(NC(=O)N(CCCl)N=O)c(C)c(C)c1NC(=O)N(CCCl)N=O
inactive: dose: 15.5 mg/kg/injection, schedule: Q01DX001 (ip), vehicle: other 120 % of control | dose: 501.0 mg/kg/injection, schedule: Q01DX001 (ip), vehicle: other 115 % of control
active: dose: 62.0 mg/kg/injection, schedule: Q01DX001 (ip), vehicle: other 152 % of control | dose: 125.0 mg/kg/injection, schedule: Q01DX001 (ip), vehicle: other 159 % of control and 160 % of control and 207 % of control | dose: 250.0 mg/kg/injection, schedule: Q01DX001 (ip), vehicle: other 203 % of control and 211 % of control and 252 % of control | dose: 375.0 mg/kg/injection, schedule: Q01DX001 (ip), vehicle: other 237 % of control | dose: 500.0 mg/kg/injection, schedule: Q01DX001 (ip), vehicle: other 223 % of control and 283 % of control | dose: 750.0 mg/kg/injection, schedule: Q01DX001 (ip), vehicle: other 151 % of control and 238 % of control | dose: 1000.0 mg/kg/injection, schedule: Q01DX001 (ip), vehicle: other 190 % of control

O=C(Nc1ccc2c(c1)C(=O)c1ccccc1-2)c1ccccc1
inactive: dose: 100.0 mg/kg/injection, schedule: Q01DX001 (ip), vehicle: saline with Tween-80 88 % of control | dose: 200.0 mg/kg/injection, schedule: Q01DX001 (ip), vehicle: saline with Tween-80 88 % of control | dose: 400.0 mg/kg/injection, schedule: Q01DX001 (ip), vehicle: saline with Tween-80 88 % of control

O=C(O)c1ccc(C(=O)O)nn1
inactive: [14] 96 % of control | [15] 90 % of control

CCOC(=O)C1CCC(NC(=O)c2ccccc2)CC1 (stereo not given)
inactive: [5] 93 % of control | [3] 100 % of control | [6] 93 % of control | [4] 98 % of control | [7] 93 % of control | dose: 400.0 mg/kg/injection, schedule: Q04DX003 (ip), vehicle: Klucel (hydroxypropylcellulose) (HPC) 94 % of control

CC1(C)CCC2=C1CC[C@H]1[C@H]2CCC2=CC(=O)CC[C@@]21C
inactive: dose: 50.0 mg/kg/injection, schedule: Q01DX001 (sc), vehicle: steriod suspending solution 102 % of control | dose: 100.0 mg/kg/injection, schedule: Q01DX001 (sc), vehicle: steriod suspending solution 96 % of control | dose: 200.0 mg/kg/injection, schedule: Q01DX001 (sc), vehicle: steriod suspending solution 102 % of control | dose: 400.0 mg/kg/injection, schedule: Q01DX001 (sc), vehicle: steriod suspending solution 102 % of control

CC/C(C)=N/NS(C)(=O)=O
inactive: dose: 75.0 mg/kg/injection, schedule: Q01DX001 (ip), vehicle: other 103 % of control | dose: 150.0 mg/kg/injection, schedule: Q01DX001 (ip), vehicle: other 97 % of control

NC(=O)NC1C=CC=CC=C1
inactive: dose: 100.0 mg/kg/injection, schedule: Q01DX001 (ip), vehicle: acetone 107 % of control | dose: 200.0 mg/kg/injection, schedule: Q01DX001 (ip), vehicle: acetone 93 % of control | dose: 400.0 mg/kg/injection, schedule: Q01DX001 (ip), vehicle: acetone 98 % of control

CC(C)C(CCN1CCCC1)(C(N)=O)c1cccc2ccccc12 (stereo not given)
inactive: [1] 112 % of control | [2] 105 % of control | [3] 98 % of control | [16] 112 % of control | [4] 95 % of control

COc1ccc([N+](=O)[O-])c(O)c1C
inactive: [17] 90 % of control | [18] 96 % of control | [19] 106 % of control

COc1cc2c(cc1OC)C1=C(CC2)C2CCCN2CC1 (stereo not given)
inactive: dose: 6.25 mg/kg/injection, schedule: Q04DX003 (ip), vehicle: saline 100 % of control | dose: 12.5 mg/kg/injection, schedule: Q04DX003 (ip), vehicle: saline 97 % of control | dose: 25.0 mg/kg/injection, schedule: Q04DX003 (ip), vehicle: saline 94 % of control and 105 % of control | dose: 50.0 mg/kg/injection, schedule: Q04DX003 (ip), vehicle: saline 102 % of control

O=C1OC(c2ccc(Cl)cc2)=N/C1=C\c1ccc(Cl)cc1
inactive: [17] 91 % of control | [18] 94 % of control | [19] 91 % of control

COc1cc(/C=N/NC(=O)CC(C)O)ccc1O (stereo not given)
inactive: [11] 104 % of control | [12] 102 % of control | [13] 104 % of control

COc1cccc(NC(=O)NCCN(C)c2ccccc2)c1
inactive: [2] 104 % of control | [16] 88 % of control | dose: 400.0 mg/kg/injection, schedule: Q01DX009 (ip), vehicle: Klucel (hydroxypropylcellulose) (HPC) 92 % of control

CC(=O)NC1CCCC(O)C1 (stereo not given)
inactive: dose: 100.0 mg/kg/injection, schedule: Q01DX009 (ip), vehicle: saline 87 % of control | dose: 200.0 mg/kg/injection, schedule: Q01DX009 (ip), vehicle: saline 92 % of control | dose: 400.0 mg/kg/injection, schedule: Q01DX009 (ip), vehicle: saline 92 % of control

Clc1ccccc1-c1nc2ccccc2cc1Cl
inactive: [11] 92 % of control | [12] 88 % of control | [13] 94 % of control

CC([NH-])C(C)[NH-].CC([NH-])C(C)[NH-].[Cl][Co][Cl] (stereo not given)
inactive: dose: 50.0 mg/kg/injection, schedule: Q04DX002 (ip), vehicle: saline 102 % of control | [14] 112 % of control | [15] 122 % of control

COC(=O)N/N=C/c1cc(OC)ccc1O
inactive: [8] 97 % of control | [9] 114 % of control | [10] 104 % of control

COc1ccc(-c2ccc(C(C)=O)cc2)cc1
inactive: [8] 90 % of control | [9] 100 % of control | [10] 100 % of control
